According to US20240115586A1, “THERAPEUTIC AGENT FOR PULMONARY FIBROSIS” (SANSHO CO. LTD., priority 2020, published 2024):

Tested on: bleomycin-induced pulmonary fibrosis model mice
Assay: Effect on right lung wet weight, dry weight and hydroxyproline in bleomycin-induced pulmonary fibrosis model mice
Assay type: in vivo, Mouse Crl:CD1(ICR)
Settings: Day 28, mean ± S.E.M., N=9; for Dry weight of right lung: Control 0.0348 ± 0.0017, Normal 0.0236 ± 0.0007; for Wet weight of right lung: Control 0.1735 ± 0.0087, Normal 0.1224 ± 0.0029; for Hydroxyproline (right lung): Control 354.9 ± 15.1, Normal 266.9 ± 6.4
Protocol: • Japanese Pharmacopoeia: Physiological saline solution (saline solution) • (2) Test system • Mouse Crl:CD1(ICR), 45 mice, male, purchased from Charles River Japan K.K. (11 weeks old at time of purchase)
The test substance was divided into 6 mg×28 doses prior to the day of administration. Dose solution was prepared on the day of administration. To one bottle of the previously aliquoted test substance (6 mg), 6 mL of saline solution was added and mixed by inverting. The samples were heated (approximately 40° C.) and sonicated until dissolution was visually confirmed (1 mg/mL solution). The 1 mg/mL solution was divided into 0.5 mL portions, and 4.5 mL of saline solution was added. Dissolution was confirmed by inverting and mixing (0.1 mg/mL solution).
The route of administration was intraperitoneal administration.
It was administered once per day for 28 days. Administration at the time of preparation of the pulmonary fibrosis model (Day 0 to Day 4) was before administration of bleomycin.
10 mL/kg was administered intraperitoneally using a 1 mL syringe and needle (Terumo Corporation).
The bleomycin solution was administered into the tail vein of mice at a dose volume of 5 mL/kg (bleomycin dose: 15 mg/kg) once a day for 5 days. The volume of administered liquid was calculated based on the latest body weight and calculated to the nearest 0.01 mL (rounded to the third decimal place). The normal group was administered physiological saline at a volume of 5 mL/kg.
After lethal exsanguination, the right bronchial bifurcation was ligated, and only the right lung was removed. The wet weight of the excised right lung was measured. After weighing, the right lung was minced. After that, the right lung was dried in a dry heat sterilizer set at 72° C. for about 72 hours, and the dry weight of the right lung was measured. After measuring the dry weight, it was stored in an ultra-low temperature freezer (permissible range: −90 to −65° C.) until the amount of hydroxyproline was measured. The left lung was ligated and fixed after a cannula was inserted into the trachea, and a 10% phosphate-buffered formalin solution was injected through the cannula at a pressure of 15 cm H2O to expand and fix the lung tissue. Lung sampling was performed on animals from which blood collection was performed. A fixed left lung is undergoing histopathological examination.
The hydroxyproline content of the right lung cryopreserved in section (6-5) was measured. 2 mL of HCl for hydrolysis was added to the dried right lung and the sample was hydrolyzed in an autoclave at about 121° C. for 30 minutes. After that, it was neutralized with 2.5 N NaOH (pH about 6 to 7: pH test paper was used for confirmation). By measuring the tare weight in advance and measuring the weight after neutralization, the amount (g) of the sample after neutralization was calculated. The sample after neutralization was appropriately diluted with water for injection, and 2 mL of the solution was used as a sample for measurement of HYP content.
1 mL of chloramine T reagent was added to 2 mL of the HYP standard solution and the mixture was left stand at room temperature for 20 minutes. Then, 1 mL of perchloric acid reagent was added and the mixture was left stand at room temperature for 5 minutes. After adding 1 mL of p-dimethylaminobenzaldehyde reagent and heating at 60° C. for 20 minutes, the absorbance at 557 nm of the supernatant which was obtained by filtration using a filter was measured with a spectrophotometer to create a calibration curve.
For 2 mL of each sample for measurement of HYP content, the absorbance was measured in the same manner as described in Section 3.6.6.2, and the HYP content (μg/mL) was calculated from the measured values based on the calibration curve obtained in Section 3.6.6.2. Each sample for measurement of HYP content was diluted 20-fold and was measured. Single measurement was used. […]

[1] = 2ccPA 1 mg/kg intraperitoneal once per day for 28 days
[2] = 2ccPA 10 mg/kg intraperitoneal once per day for 28 days

2-Carbacyclic phosphatidic acid [2ccPA]
Dry weight of right lung [1]: 0.0327 ± 0.0021 g
Wet weight of right lung [1]: 0.1599 ± 0.0113 g
Hydroxyproline (right lung) [1]: 331.2 ± 20.0 μg/lung
Dry weight of right lung [2]: 0.0303 ± 0.0011 g
Wet weight of right lung [2]: 0.1458 ± 0.0044 g
Hydroxyproline (right lung) [2]: 288.8 ± 11.1 μg/lung
